Source: patent publication US20220096436A1, “COMBINATION PRODUCT FOR THE TREATMENT OF CANCER” (Debiopharm International S.A., priority 2019, published 2022)

Experiments:
B16F10 melanoma tumors = assay: Anti-tumor efficacy in subcutaneous B16F10 mouse melanoma syngeneic model; format: in vivo, C57BL/6 mice; conditions: for TGI: vs vehicle; for mean tumor volume: vehicle group 1529 mm^3
Procedure: C57BL/6 mice were s.c. injected with 2×10^5 B16F10 tumor cells (see, for example, Bobek et al., 2010. Anticancer Res. 30(12):4799-803) and treatments started at a mean group tumor size of 94 mm^3 (n=8/group). Debio 1143 at 100 and 200 mg/kg p.o. was given on 5 days/week in combination with 10 mg/kg i.p. anti-PD1 twice weekly and compared to treatment with vehicle plus isotype antibody. In addition, the 100 mg/kg dose given twice weekly in combination with anti-PD1 at 10 mg/kg i.p. twice weekly was tested.

TS/A breast cancer = assay: Therapeutic efficacy in TS/A breast cancer mouse syngeneic model; format: in vivo; conditions: Debio 1143 combined with an anti-CTLA4 antibody
Procedure: (§1) The therapeutic efficacy of Debio 1143 combined with an anti-CTLA4 antibody was tested in a TS/A breast cancer mouse syngeneic model. Further, the therapeutic efficacy of Debio 1143 combined with an IDO inhibitor (INCB024360) was tested in a CT-26 colorectal cancer mouse syngeneic model.

CT-26 colorectal cancer = assay: Therapeutic efficacy in CT-26 colorectal cancer mouse syngeneic model; format: in vivo; conditions: Debio 1143 combined with IDO inhibitor INCB024360
Procedure: as §1

[1] = nivolumab 3-10 mg/kg q2w monotherapy across tumor types, n=2,578; cited from earlier work
cancers = conditions: nivolumab monotherapy, 27 trials, n=5,551, cited from earlier work

Work on CN[C@@H](C)C(=O)N[C@H]1CN(C(=O)CC(C)C)CC[C@H]2CC[C@@H](C(=O)NC(c3ccccc3)c3ccccc3)N2C1=O [Debio 1143, (5S,8S,10aR)-N-benzhydryl-5-((S)-2-(methylamino)propanamido)-3-(3-methylbutanoyl)-6-oxodecahydropyrrolo[1,2-a][1,5]diazocine-8-carboxamide] yielded a TGI (B16F10 melanoma tumors; day 19, Debio 1143 100 mg/kg p.o. QD1-5 combined with anti-PD-1 10 mg/kg, P=0.155) of 31%, a mean tumor volume (B16F10 melanoma tumors; day 19, Debio 1143 200 mg/kg p.o. 5 days/week in combination with 10 mg/kg anti-PD-1) of 594 mm^3 and a TGI (B16F10 melanoma tumors; day 19, Debio 1143 200 mg/kg p.o. 5 days/week in combination with 10 mg/kg anti-PD-1, P=0.005) of 61%. It also gave a mean tumor volume (B16F10 melanoma tumors; day 19, bi-weekly Debio 1143 100 mg/kg in combination with anti-PD-1 10 mg/kg) of 1396 mm^3, a TGI (B16F10 melanoma tumors; day 19, bi-weekly Debio 1143 100 mg/kg in combination with anti-PD-1 10 mg/kg, P=0.757) of 9% and a mean tumor volume (B16F10 melanoma tumors; day 19 from tumor inoculation, Debio 1143 100 mg/kg p.o. QD1-5 (5 days/week) combined with anti-PD-1 10 mg/kg i.p. twice weekly) of 1049 mm^3. The “combination therapy compared to the respective monotherapies” value (TS/A breast cancer) was “did not lead to a statistically significant improvement” and the “combination therapy compared to the respective monotherapies” value (CT-26 colorectal cancer) was “did not lead to a statistically significant improvement”.
In the case of “nivolumab: fully human immunoglobulin G4 (IgG4) monoclonal antibody, which binds to the PD-1 receptor and blocks its interaction with PD-L1 and PD-L2”, the “adverse reaction frequency: diarrhea” value [1] is given as 13%, the “adverse reaction frequency: fatigue” value [1] is given as 30% and the “adverse reaction frequency: pruritus” value [1] is given as 13%. For the same molecule, the “adverse reaction frequency: rash” value [1] was 17%, the “pooled objective response rate (ORR)” value (cancers; 95% CI 21-31) was 26% and the “6-month PFS rate” value (cancers; 95% CI 34-46) was 40%. The “1-year OS rate” value (cancers; 95% CI 43-62) was 52%.
